Assay results as given in ChEMBL document CHEMBL5120812, “Cytotoxic Nitrobenzoyl Sesquiterpenoids from an Antarctica Sponge-Derived Aspergillus insulicola” (J Nat Prod, 2022).
Calls of active or inactive are those of the source. No cut-off for these calls is given here.

Experiments:
PANC-1 [1] = experiment: Induction of apoptosis in human PANC-1 cells assessed as viable cells at 2.50 uM incubated for 24 hrs by annexinV-FITC and PI staining based flow cytometry analysis (reference value: 89.5 %); format: functional; conditions: read-out: Activity
ASPC1 [2] = experiment: Downregulation of survivin level in human ASPC1 cells upto 5 uM incubated for 24 hrs by Western blot analysis; format: functional, cell-based
ASPC1 [3] = experiment: Induction of apoptosis in human ASPC1 cells assessed as viable cells at 2.50 uM incubated for 24 hrs by annexinV-FITC and PI staining based flow cytometry analysis (reference value: 96.0 %); format: functional; conditions: read-out: Activity
[4] = molecular target: Epidermal growth factor receptor (Homo sapiens) (UniProt P00533); experiment: Inhibition of EGFR downstream signalling in human ASPC1 cells assessed as reduction of STAT3 phosphorylation upto 5 uM incubated for 24 hrs by Western blot analysis; format: cell-based
Sequence of Epidermal growth factor receptor (Homo sapiens) (P00533 whole entry): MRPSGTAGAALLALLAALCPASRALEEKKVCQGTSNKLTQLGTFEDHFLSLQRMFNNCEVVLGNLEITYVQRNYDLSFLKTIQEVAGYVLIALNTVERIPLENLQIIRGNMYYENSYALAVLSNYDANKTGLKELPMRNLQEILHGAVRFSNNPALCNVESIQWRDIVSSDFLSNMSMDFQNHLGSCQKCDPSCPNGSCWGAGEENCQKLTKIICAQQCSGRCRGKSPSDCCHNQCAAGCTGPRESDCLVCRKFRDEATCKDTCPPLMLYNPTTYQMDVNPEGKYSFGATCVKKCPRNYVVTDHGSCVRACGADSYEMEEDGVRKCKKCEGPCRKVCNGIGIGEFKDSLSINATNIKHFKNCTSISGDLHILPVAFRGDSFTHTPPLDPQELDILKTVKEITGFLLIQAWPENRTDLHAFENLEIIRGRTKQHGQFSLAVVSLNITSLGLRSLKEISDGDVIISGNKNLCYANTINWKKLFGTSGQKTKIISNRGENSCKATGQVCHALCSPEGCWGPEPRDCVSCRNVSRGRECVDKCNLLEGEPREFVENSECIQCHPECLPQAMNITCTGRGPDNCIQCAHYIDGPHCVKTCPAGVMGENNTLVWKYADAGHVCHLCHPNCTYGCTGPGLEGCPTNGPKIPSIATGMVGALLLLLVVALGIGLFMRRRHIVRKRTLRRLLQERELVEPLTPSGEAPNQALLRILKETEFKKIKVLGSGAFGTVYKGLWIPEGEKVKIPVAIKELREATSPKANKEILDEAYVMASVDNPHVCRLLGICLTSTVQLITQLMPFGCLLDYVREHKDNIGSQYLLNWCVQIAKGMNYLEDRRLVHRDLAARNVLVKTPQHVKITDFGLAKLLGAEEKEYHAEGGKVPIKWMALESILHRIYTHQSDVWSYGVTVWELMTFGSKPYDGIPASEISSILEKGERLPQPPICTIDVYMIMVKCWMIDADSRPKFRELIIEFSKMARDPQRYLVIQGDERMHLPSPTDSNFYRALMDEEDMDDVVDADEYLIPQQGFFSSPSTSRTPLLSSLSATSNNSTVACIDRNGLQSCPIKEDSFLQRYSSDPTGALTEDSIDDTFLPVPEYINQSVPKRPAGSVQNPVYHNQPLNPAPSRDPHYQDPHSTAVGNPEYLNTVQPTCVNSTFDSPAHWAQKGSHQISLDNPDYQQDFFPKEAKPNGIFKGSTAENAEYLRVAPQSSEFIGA

PANC-1 [5] = experiment: Induction of apoptosis in human PANC-1 cells assessed as early apototic cells at 1.25 uM incubated for 24 hrs by annexinV-FITC and PI staining based flow cytometry analysis (reference value: 4.66 %); format: functional
PANC-1 [6] = experiment: Cytotoxicity against human PANC-1 cells assessed as reduction in cell viability at 5 uM incubated for 24 hrs in presence of gemcitabine by SRB assay; format: functional, cell-based
PANC-1 [7] = experiment: Induction of apoptosis in human PANC-1 cells assessed as early apototic cells at 5 uM incubated for 24 hrs by annexinV-FITC and PI staining based flow cytometry analysis (reference value: 4.66 %); format: functional
PANC-1 [8] = experiment: Induction of apoptosis in human PANC-1 cells assessed as viable cells at 1.25 uM incubated for 24 hrs by annexinV-FITC and PI staining based flow cytometry analysis (reference value: 89.5 %); format: functional; conditions: read-out: Activity
ASPC1 [9] = experiment: Induction of apoptosis in human ASPC1 cells assessed as viable cells at 5 uM incubated for 24 hrs by annexinV-FITC and PI staining based flow cytometry analysis (reference value: 96.0 %); format: functional; conditions: read-out: Activity
PANC-1 [10] = experiment: Induction of apoptosis in human PANC-1 cells assessed as viable cells at 5 uM incubated for 24 hrs by annexinV-FITC and PI staining based flow cytometry analysis (reference value: 89.5 %); format: functional; conditions: read-out: Activity
PANC-1 [11] = experiment: Induction of apoptosis in human PANC-1 cells assessed as late apototic cells at 1.25 uM incubated for 24 hrs by annexinV-FITC and PI staining based flow cytometry analysis (reference value: 5.71 %); format: functional
PANC-1 [12] = experiment: Induction of apoptosis in human PANC-1 cells assessed as necrotic cells at 2.50 uM incubated for 24 hrs by annexinV-FITC and PI staining based flow cytometry analysis (reference value: 0.14 %); format: functional; conditions: dose 2.5 µM
PANC-1 [13] = experiment: Induction of apoptosis in human PANC-1 cells assessed as late apototic cells at 2.50 uM incubated for 24 hrs by annexinV-FITC and PI staining based flow cytometry analysis (reference value: 5.71 %); format: functional; conditions: dose 2.5 µM
PANC-1 [14] = experiment: Induction of apoptosis in human PANC-1 cells assessed as early apototic cells at 2.50 uM incubated for 24 hrs by annexinV-FITC and PI staining based flow cytometry analysis (reference value: 4.66 %); format: functional; conditions: dose 2.5 µM
MDA-MB-231 = experiment: Cytotoxicity against human MDA-MB-231 cells assessed as inhibition of cell growth incubated for 72 hrs by SRB assay; format: functional, cell-based; conditions: MDA-MB-231, 72 h
ASPC1 [15] = experiment: Inhibition of cell migration in human ASPC1 cells at 0.94 to 3.75 uM incubated for 24 hrs by wound healing assay; format: functional, cell-based; conditions: dose 0.94-3.75 µM
PANC-1 [16] = experiment: Cytotoxicity against human PANC-1 cells assessed as inhibition of cell growth incubated for 72 hrs by SRB assay; format: functional, cell-based; conditions: PANC-1, 72 h
PANC-1 [17] = experiment: Induction of apoptosis in human PANC-1 cells assessed as necrotic cells at 5 uM incubated for 24 hrs by annexinV-FITC and PI staining based flow cytometry analysis (reference value: 0.14 %); format: functional
ASPC1 [18] = experiment: Induction of apoptosis in human ASPC1 cells assessed as increase in caspase 3 enzymatic activity upto 5 uM incubated for 24 hrs by Western blot analysis; format: functional, cell-based
PANC-1 [19] = experiment: Cytotoxicity against human PANC-1 cells assessed as inhibition of cell proliferation incubated for 24 to 72 hrs by SRB assay; format: functional, cell-based; conditions: dose 0.94-30 µM, time 24-72 hrs, DDE = dose-dependent effect
BXPC-3 = experiment: Cytotoxicity against human BXPC-3 cells assessed as inhibition of cell growth incubated for 72 hrs by SRB assay; format: functional, cell-based; conditions: BXPC-3, 72 h
PANC-1 [20] = experiment: Cytotoxicity against human PANC-1 cells assessed as inhibition of cell proliferation at 0.94 to 30 uM by SRB assay; format: functional, cell-based; conditions: dose 0.94-30 µM, time 24-72 hrs, TDE = time-dependent effect
PANC-1 [21] = experiment: Antiinvasive activity in human PANC-1 cells assessed as decrease in cell invasion at 0.94 to 3.75 uM incubated for 24 hrs by crystal violet staining based transwell assay; format: functional; conditions: dose 0.94-3.75 µM
PANC-1 [22] = experiment: Induction of apoptosis in human PANC-1 cells assessed as suppression of XIAP expression at upto 5 uM incubated for 24 hrs by Western blot analysis; format: functional, cell-based
ASPC1 [23] = experiment: Cytotoxicity against human ASPC1 cells assessed as reduction in cell viability at 5 uM incubated for 24 hrs in presence of gemcitabine by SRB assay; format: functional, cell-based
PANC-1 [24] = experiment: Induction of apoptosis in human PANC-1 cells assessed as increase in PARP level incubated for 24 hrs by Western blot analysis; format: functional, cell-based; conditions: dose 1.25-5 µM, DDE = dose-dependent effect
ASPC1 [25] = experiment: Upregulation of PARP expression in human ASPC1 cells incubated for 24 hrs in presence of gemcitabine by Western blot analysis; format: functional, cell-based
PANC-1 [26] = experiment: Downregulation of survivin level in human PANC-1 cells upto 5 uM incubated for 24 hrs by Western blot analysis; format: functional, cell-based
PANC-1 [27] = experiment: Inhibition of cell migration in human PANC-1 cells at 0.94 to 3.75 uM incubated for 24 hrs by wound healing assay; format: functional, cell-based; conditions: dose 0.94-3.75 µM
ASPC1 [28] = experiment: Induction of apoptosis in human ASPC1 cells assessed as increase in PARP level incubated for 24 hrs by Western blot analysis; format: functional, cell-based; conditions: dose 1.25-5 µM, DDE = dose-dependent effect
PANC-1 [29] = experiment: Induction of apoptosis in human PANC-1 cells assessed as increase in cleaved caspase 3 level incubated for 24 hrs by Western blot analysis; format: functional, cell-based; conditions: dose 1.25-5 µM, DDE = dose-dependent effect

- inhibition [4]: Active
SMILES: COC(=O)CCCCCCC/C=C/C(=O)OC[C@@]1(C)CCC[C@@]2(C)[C@H]1[C@H](OC(=O)c1ccc([N+](=O)[O-])cc1)C=C1C(=O)OC[C@@]12O
- viability at 2.5 µM (PANC-1 [1]): 80.6%
- Activity (ASPC1 [2]): Active
- viability at 2.5 µM (ASPC1 [3]): 87.7%
- Activity (PANC-1 [5]): 5.99%
- Activity (PANC-1 [6]): Active
- Activity (PANC-1 [7]): 7.12%
- viability at 1.25 µM (PANC-1 [8]): 90.7%
- viability at 5 µM (ASPC1 [9]): 85.1%
- viability at 5 µM (PANC-1 [10]): 69.6%
- Activity (PANC-1 [11]): 3.09%
- Activity (PANC-1 [12]): 0.25%
- Activity (PANC-1 [13]): 13.6%
- Activity (PANC-1 [14]): 5.58%
- IC50 (MDA-MB-231): 22.9 µM
- inhibition (ASPC1 [15]): Active
- IC50 (PANC-1 [16]): 4.2 µM
- Activity (PANC-1 [17]): 0.11%
- Activity (ASPC1 [18]): Active
- Activity (PANC-1 [19]): Dde
- IC50 (BXPC-3): 4.88 µM
- Activity (PANC-1 [20]): Tde
- Activity (PANC-1 [21]): Active
- Activity (PANC-1 [22]): Active
- Activity (ASPC1 [23]): Active
- Activity (PANC-1 [24]): Dde
- Activity (ASPC1 [25]): Active
- Activity (PANC-1 [26]): Active
- inhibition (PANC-1 [27]): Active
- Activity (ASPC1 [28]): Dde
- Activity (PANC-1 [29]): Dde
